Where “and” joins values, the source holds several entries; their conditions need not be identical. Identical values can stand only once.
tested on: P. falciparum 3D7 growth, pLDH absorbance; assay: blood-stage malaria parasite growth potency – strain 3D7, dose response (AID 2305)

SMILES	IC50
CC(C)(C)OC(=O)Nc1cccc(-c2csc(N=C(N)N)n2)c1	840 nM
COc1cc2nc(N3CCC(CNC(=O)c4ccc(-c5ccc(Cl)cc5)cc4)CC3)nc(N)c2cc1OC	150 nM
CCn1ccc2c(N3CCCS3(=O)=O)cc(C(=O)N[C@@H](Cc3ccccc3)[C@H](O)CNC3CCCCC3)cc21	140 nM
COc1ccc2nc(C)cc(NN=Cc3ccccc3)c2c1	1030 nM
Cc1cc(OCCCN=C(N)c2ccc3ccccc3c2)c(C(C)C)cc1Cl	970 nM
CN1CCCc2ccc(NC(=O)c3cnc(-c4ccccc4)cn3)cc21	910 nM
COc1ccc2ncc(F)c(CCN3CC[C@H](NCc4cc5c(s4)CCCN5)[C@H](O)C3)c2n1	960 nM
CCCC1N=C(N)N=C(N)N1c1ccc(CC)cc1 (stereo unspecified)	70 nM
OC(CNC1CCCCC1)Cn1c2ccc(Br)cc2c2cc(Br)ccc21 (stereo unspecified)	300 nM
O=c1cc(NCCCNC2CCOc3c(I)cc(Cl)cc32)[nH]c2ccccc12 (stereo unspecified)	830 nM
CCCCCCCN(Cc1ccc(OC(C)(C)C(=O)OCC)cc1)C(=O)Nc1ccccc1OC(F)(F)F	970 nM
NC1=NC2(CCCCC2)N(OCCOc2ccc(Cc3ccccc3)cc2)C(N)=N1	1130 nM
Cc1nc2ccc3ccc(CNc4ccc(C(=O)N[C@@H](CCC(=O)O)C(=O)O)c(F)c4)cc3c2c(=O)[nH]1	400 nM
CN1CCN(CC(=O)Nc2cccc(-c3cccc(-c4nc5ccccc5[nH]4)c3)c2)CC1	1290 nM
O=C(c1cccc(-c2cccc(-c3nc4ccc(F)cc4[nH]3)c2)c1)N1CCCCC1CN1CCC(O)C1 (stereo unspecified)	880 nM
C=CCNC(CCCCC)c1ccc(OCCOc2ccc(C(CCCCC)NCC=C)cc2)cc1 (stereo unspecified)	570 nM
Fc1ccc2[nH]cc(CCNCc3ccc(-c4cccc(-c5nc6ccccc6[nH]5)c4)cc3)c2c1	170 nM
O=C(Nc1ccc(Cl)cc1)N[C@H]1CCN(Cc2ccc(OCCCN3CCCCC3)cc2)C1	670 nM
O=C(Nc1ccc(Cl)cc1Cl)NC1CCN(CCCCCNC(=O)[C@@H]2C[C@H]2c2ccc(Cl)c(Cl)c2)CC1	370 nM
Cc1ccc(CN2CCCN(Cc3cccc(NC(=O)c4cc5ccccc5s4)c3)CC2)cc1	1190 nM
CCCCCCN1CCCN(Cc2ccc(C(=O)Nc3cccc(CC)c3)cc2)CC1	670 nM
COc1ccc(-c2ccc(S(=O)(=O)Nc3cc4c(cc3OC(C)C)CCNCC4)cc2)cc1	970 nM
COc1ccc(N2CCN(CCCCNC(=O)c3ccc(NC(=O)c4ccc(Cl)cc4)cc3)CC2)c(OC)c1	950 nM
CC1(C)[C@H]2CC[C@]1(C)CN(CC(O)Cn1c3ccccc3c3cc(I)ccc31)C2 (stereo partly specified)	1160 nM

SMILES	IC50
COc1ccc(CNc2nccc3ccc(-c4ccc(N)nc4)cc23)cc1	980 nM
CC(C)(C)c1ccc(NC(=O)c2cccc(CN3CCCN(Cc4cccc(C#N)c4)CC3)c2)cc1	760 nM
FC(F)(F)c1cnc(Sc2nnc(-c3ccco3)o2)c(Cl)c1	790 nM
O=C(NCCCCN1CCC(c2ccc(Br)cc2)CC1)c1ccc(NC(=O)c2ccc(Cl)cc2)cc1	710 nM
CS(=O)(=O)N(c1ccc(F)cc1)c1cc(C(=O)N[C@@H](Cc2ccccc2)[C@H](O)CNCc2cccc(C(F)(F)F)c2)cc(N2CCCC2=O)c1	1350 nM
O=C(NCCc1cccc(F)c1)c1cc(Br)cc(N2CCN(c3ccncc3)CC2)c1	760 nM
COc1ccc(N2CCN(CCCCNC(=O)c3ccc(NC(=O)c4ccc(C(F)(F)F)cc4)cc3)CC2)c(OC)c1	590 nM
CCN1CCC(N(Cc2ccc(-c3ccc(Cl)cc3)cc2)C(=O)Cn2c(CCc3cccc(F)c3F)cc(=O)c3ccccc32)CC1	700 nM
Cc1nnsc1C(=O)Nc1cccc(-c2cccc(-c3nc4ccccc4[nH]3)c2)c1	440 nM
O=C(CC1CCCCC1)NCC(NCCCNc1cc(=O)c2ccccc2[nH]1)c1cc(Br)cc(Br)c1 (stereo unspecified)	1050 nM
N[C@@H](CCN1CCC(c2cccc(O)c2)CC1)Cc1ccc(F)c(F)c1	1110 nM
COc1ccc(CNC(=O)c2cc3c(=O)n4ccccc4nc3n(CCc3ccccc3)c2=N)cc1	330 nM
Oc1ccc(CCNc2nc(NCc3ccccc3Oc3ccc(C(F)(F)F)cc3)nc(N3CCNCC3)n2)cc1	1160 nM
CCOc1cc(C(=O)N[C@@H](Cc2ccccc2)[C@H](O)CNCc2cc(OC)cc(OC)c2)cc(N2CCCS2(=O)=O)c1	750 nM
Cc1cc(C(=O)NCc2ccc(-c3c(C)noc3C)cc2)n(-c2ccccc2)n1	820 nM
CCOC(=O)C(CO)NC(=O)c1ccc([N+](=O)[O-])o1 (stereo unspecified)	290 nM
COc1cc(Cl)c(C)cc1N(Cc1ccccc1-c1ccccc1)S(=O)(=O)c1ccc(C(F)(F)F)cc1	1050 nM
Cc1noc(C)c1-c1ccc2c(Nc3nccc4ccccc34)c(C(N)=O)cnc2c1	890 nM
OC1(CNCc2ccccc2)CCN(CCc2c[nH]c3ccc(F)cc23)CC1	710 nM
COc1cc(NC(=O)/C=C/c2cc(F)cc(F)c2F)cc(OCCN2CCCCC2)c1	150 nM
Fc1cc(Cl)ccc1Nc1ccnc(Nc2ccc3cn[nH]c3c2)n1	740 nM
CC(=O)c1cccc(S(=O)(=O)NCCCNc2nc3cc(C)cc(C)c3cc2C#N)c1	910 nM
CCC(C)NCCC(c1ccccc1)c1ccccc1O (stereo unspecified)	790 nM
CCn1ccc2c(N3CCCC3=O)cc(C(=O)N[C@@H](Cc3ccccc3)[C@H](O)CNC3CCCCC3)cc21	120 nM

SMILES	IC50
CC1CCCCC1N(C)C1CCN(CCCNC(=O)C=Cc2ccccc2Cl)CC1 (stereo unspecified)	670 nM
COc1ccc(F)cc1-c1ccccc1CNC(=O)c1cnn(-c2ccc([N+](=O)[O-])cc2)c1C(F)(F)F	600 nM
COc1ccc(C(=O)NCC(C)(C)c2nc(-c3ccc(Cl)c(O)c3)c(-c3ccncc3)[nH]2)cc1OCCN(C(C)C)C(C)C	640 nM
CN(C)CCCNCc1ccc(-c2ccc(CNCCOc3ccccc3)cc2)cc1	20 nM
O=C(NCc1cccc(C(F)(F)F)c1)C(c1cc2ccccc2o1)N1CCN(C(c2ccccc2)c2ccccc2)CC1 (stereo unspecified)	500 nM
CC1CCC(NCc2ccc3c(CNC4CCC(C)CC4)c(O)ccc3c2O)CC1 (stereo unspecified)	120 nM
CCCCN1CCCC[C@H]1[C@@H](O)c1ccnc2ccc(OCC)cc12	770 nM
COc1ccc2nccc([C@@H](O)CN3CC[C@H](NCc4nc5c(cc4Cl)SCC(=O)N5)[C@H](F)C3)c2c1	760 nM and 510 nM
CCN(CC)CCOc1ccc(C(O)(C#CC(O)(c2ccc(Br)cc2)c2ccc(OCCN(CC)CC)cc2)c2ccc(Br)cc2)cc1 (stereo unspecified)	620 nM
O=C(Nc1ccc(OC2CCN(Cc3ccco3)C2)c(Cl)c1)c1ccc2ncccc2c1 (stereo unspecified)	1080 nM
CCCCSc1nc2c(c(=O)n1Cc1ccco1)C1(CCCCC1)Cc1ccccc1-2	960 nM
CC(C)c1ccc(NC(=O)NC2CCN(CCCCCN(C)C(=O)/C=C/c3ccc(Cl)c(Cl)c3)C2)cc1 (stereo unspecified)	830 nM
CCCNCc1ccc(-c2ccc(CN(CCOC)C(=O)c3ccccc3)cc2)nc1	880 nM
CCNc1cc(C)nc(Nc2ccc(NC(=O)c3ccc(OC)c(OC)c3)cc2)n1	1070 nM
CCCCCCCc1cc(O)c2c(c1)OC(C)(C)c1ccncc1-2	1150 nM
Cc1ccc(-n2nc(-c3ccccc3)c3cc(C(=O)NCCN)sc32)cc1	1370 nM
CN1CCCCC1CCc1cc(C(=O)Nc2ccc(-c3ccc(O)cc3)cc2)ccc1O (stereo unspecified)	1110 nM
c1ccc(OCCCCN2CCCCC2)cc1	540 nM
Cc1noc(C)c1-c1ccc2c(Nc3ccccc3C(C)(C)C)c(C(=O)NCc3ccccc3)cnc2c1	760 nM
Cc1cccc2[nH]c(-c3ccc(-c4cccc(NC(=O)Nc5ccc(F)c(F)c5F)c4)cc3)nc12	340 nM
CCN(CC)CCN(Cc1ccc(-c2ccc(C(F)(F)F)cc2)cc1)C(=O)Cn1c(CCc2ccc(F)c(F)c2F)nc(=O)c2ccccc21	790 nM
COc1cccc(-c2cc(C(=O)NC3CCC(N4CCC(c5ccccc5C)CC4)CC3)[nH]n2)c1 (stereo unspecified)	1120 nM
CN(c1ccc(NC(=O)c2ccc(F)cc2)cc1)C1CCN(Cc2cccc(F)c2)C1 (stereo unspecified)	1410 nM
O=C(/C=C/c1ccc(Cl)c(Cl)c1)NCCCCCN1CCC(NC(=S)Nc2cccc(Cl)c2)CC1	870 nM

SMILES	IC50
CCCCCCCCCc1c(C)[nH]c2ccccc2c1=O	160 nM
O=C(Nc1cccc(CN2CCCN(Cc3ccc(O)cc3)CC2)c1)c1ccc2ccccc2n1	940 nM
CCN(CC)CCCN(Cc1ccc(-c2ccc(C(F)(F)F)cc2)cc1)C(=O)Cn1c(SCc2cccc(F)c2F)cc(=O)c2ccccc21	1320 nM
OC(CNc1ccnc(Nc2ccc(Cl)cc2)n1)c1cccc(C(F)(F)F)c1 (stereo unspecified)	680 nM
O=[N+]([O-])c1ccc(Nc2nc(NN=Cc3ccc(-c4ccc([N+](=O)[O-])cc4)o3)nc(Nc3ccccc3)n2)cc1	640 nM
Oc1ccc(-c2cc(COc3ccccc3C(F)(F)F)c(C3=CCNCC3)cc2COc2ccccc2C(F)(F)F)cc1	780 nM
Cc1c(CNCCCNc2cc(=O)c3ccccc3[nH]2)sc(-c2ccco2)c1Br	1020 nM
COc1ccc(CNc2nc(NCCc3ccccc3)c3cc(OC)c(OC)cc3n2)cc1OC	180 nM
CN(Cc1cccc(O)c1)C1CCN(c2cc(NC(=O)c3cccc(F)c3)ccn2)CC1	850 nM
FC(F)(F)c1ccc2nccc(NCc3ccccc3)c2c1	1150 nM
O=C(NCc1ccc(F)cc1)c1cc(Br)cc(N2CCN(c3ccncc3)CC2)c1	1230 nM
O=S(=O)(c1cccc(Br)c1)N1CCCCC(c2ccc(C(F)(F)F)cc2)=N1	550 nM
FC(F)(F)c1ccc2nc(-c3cccc(-c4ccc(CNCCN5CCNCC5)cc4)c3)[nH]c2c1	860 nM
CC(=O)Oc1cc(C(=O)Nc2ccc(Cl)cc2)cc2ccccc12	860 nM
Cc1ccc(CC(C)NCC(O)c2cccc([N+](=O)[O-])c2)cc1 (stereo unspecified)	760 nM
COc1cc(OC)c(OC)cc1C=NNc1cc(C)nc2ccccc12	300 nM
CN1CCCN(c2ccnc3cc4c(cc23)N(C(=O)c2ccc(Cl)cc2Cl)CC4)CC1	810 nM
CCN=C1NC2=C(CC(C(C)(C)C)CC2)C2(CCC(C(C)(C)C)CC2)S1 (stereo unspecified)	830 nM
CC(C)c1ccc(NC(=O)c2ccc(C(=O)NC3CCN(Cc4ccsc4)C3)cc2)cc1 (stereo unspecified)	1030 nM
COc1ccc(Br)cc1C1Nc2ccc3ccccc3c2C2=C1C(=O)CC(c1ccccc1)C2 (stereo unspecified)	590 nM
Cc1cccc2[nH]c(-c3cccc(-c4cccc(NC(=O)Nc5ccc(Cl)c(Cl)c5)c4)c3)nc12	370 nM
Cc1ccc(NC(=O)N2CCCN(CCCCCNC(=O)/C=C/c3ccc(Cl)c(Cl)c3)CC2)cc1C	770 nM
Cc1ccccc1C1CCN(C2CCC(NC(=O)/C=C/c3ccc(C(F)(F)F)cc3F)CC2)CC1 (stereo unspecified)	900 nM
Nc1oc2c(CN3CCCCCC3)c(O)ccc2c(=O)c1-c1nc2ccccc2s1	520 nM
